Test results as given in US10030064B2, “Mammalian cell culture processes for protein production” (priority 2009, dated 2018).
Like-named read-outs stand apart in the source and are kept apart here.

Assays:
[1] = system: purified IgG-fusion proteins; conditions: Tris-acetate buffer pH 7.5, 37° C., 1 h
Method: Reduced glutathione (GSH) at 0, 1 and 3 mM final concentrations was added to Tris-acetate buffered (pH 7.5) solution of purified IgG-fusion proteins, and the mixture of GSH and proteins was incubated at 37° C. for 1 h before SEC-HPLC analysis.
SEC analysis was performed according to the previously published method (Perico et al., 2008) with some modifications. Briefly, the Protein-A purified samples were run on an Agilent 1100 HPLC system (Agilent Technologies, Inc., Palo Alto, Calif.) on Tosoh Bioscience TSK-Gel G3000 SWxl column (7.8 ID×30 cm, 5 μm particles). The mobile phase contained 1× Phosphate Buffered Saline (PBS) at pH 7.4. The flow rate was 0.5 mL/min, and column temperature was controlled at 25° C. The signal was monitored by absorbance at wavelength of 280 nm.
To determine if GSH itself could affect protein aggregation by directly interacting with the proteins, we did in vitro study by adding GSH to Protein-A purified IgG-fusion proteins that were reconstituted in Tris-acetate buffer, and analyzed SEC profiles.

CHO cells [2] = assay: Shake flask CHO culture in serum free medium: viable cell density, viability, growth rate, productivity (Example 3); assay type: cell-based, Chinese hamster; conditions: for final viability: over 0.1 to 10 μM; for Final VCD / Peak VCD / Viability (final, day 10): added two days after inoculation
Method: The CHO cell line used in this study was subcloned from DG44 parental cells and cultured in a proprietary chemically-defined growth medium.
The experiments were carried out in 250-mL shake flasks (VWR international) with starting volumes of 100 mL and initial cell densities of 6×10^5 cells/mL. The cultures were placed on a shaker platform (VWR international) at 150 rpm and maintained at 37° C. and 6% CO2 for ten days. The cultures were sampled daily and the pH adjustment using 1M sodium carbonate, and fed with glucose and glutamine every two days in order to maintain them at certain levels. Cell density and viability were measured off-line a Bioprofile Analyzer 400 (Nova Biomedical Corporation, Waltham, Mass.).
The eluted protein was quantified using a 10-level standard curve.

GILZ = assay: Western blot of GILZ protein in CHO cells; assay type: cell-based, Chinese hamster; conditions: in the presence of 1 μM RU-486
Method: Approximately 10^7 CHO cells were washed with 1× phosphate buffered saline (PBS) solution, lysed with 1 mL of Laemmli sample buffer (Bio-Rad Laboratories, Hercules, Calif.), and then denatured at 90° C. for 5 minutes. […] Membranes were stripped and re-probed with β-actin antibody (Santa Cruz Biotechnology) and an HRP-conjugated anti-mouse secondary antibody. Immunodetection was performed with the enhanced chemiluminescence Western blotting detection system (GE Healthcare UK Limited Little Chalfont, Buckinghamshire, UK) and visualized with a VersaDoc Imaging System (Bio-Rad Laboratories, Hercules, Calif.).
The blot was also reprobed with the beta-actin antibody as a control to assess equivalent gel loading.

CHO cells [3] = assay: Preliminary experiment: RU-486 on CHO cell viability, growth and metabolic parameters; assay type: cell-based, Chinese hamster
Excerpt: RU-486 is a GR antagonist and often used as a tool drug in many GR related studies.

glutathione reductase = assay: Western blot of glutathione reductase in CHO cells; assay type: cell-based, Chinese hamster; conditions: 1 μM RU-486 added one day before 0.1 μM DEX
Method: After being washed with 1×PBS, approximately 10^7 CHO cells were lysed with 1 mL of Laemmli sample buffer (Bio-Rad Laboratories) and denatured at 90° C. for 5 minutes. The whole cell lysates were separated on a 4-15% SDS-polyacrylamide gel, blotted to 0.45 μm nitrocellulose membranes (Bio-Rad Laboratories), and probed with primary antibodies and secondary antibody. The primary antibody for detection of glutathione reductase was the monoclonal antibody raised against amino acids 391-510 mapping near the C-terminus of glutathione reductase of human origin (Santa Cruz Biotechnology, Santa Cruz, Calif.). […] The primary antibody used for detection of glucocorticoid receptor was anti-human monoclonal antibody (Santa Cruz Biotechnology, Santa Cruz, Calif.). The secondary antibody was horseradish peroxidase (HRP)-conjugated anti-mouse antibody (Santa Cruz Biotechnology, Santa Cruz, Calif.). Membranes were stripped and re-probed with β-actin antibody (Santa Cruz Biotechnology) and HRP-conjugated secondary antibody. Immunodetection was performed with the enhanced chemiluminescence Western blotting detection system (GE Healthcare) and visualized with VersaDoc Imaging System (Bio-Rad Laboratories).
A Western Blot was performed to detect glutathione reductase expression in the whole cell lysates prepared from the CHO cells treated with various concentrations of DEX. […]

| SMILES | reduction rate of percentage of high molecular weight species ([1]; 1 mM GSH) [%] | reduction rate of percentage of high molecular weight species ([1]; 3 mM GSH) [%] | final viability (CHO cells [2]) | Final VCD (CHO cells [2]; treatment concentration 0.1 μM) | Peak VCD (CHO cells [2]; treatment concentration 0.1 μM) | Viability (final, day 10) (CHO cells [2]; treatment concentration 0.1 μM) [%] | Final VCD (CHO cells [2]; treatment concentration 1 μM) | Peak VCD (CHO cells [2]; treatment concentration 1 μM) | Viability (final, day 10) (CHO cells [2]; treatment concentration 1 μM) [%] | Final VCD (CHO cells [2]; treatment concentration 10 μM) | Peak VCD (CHO cells [2]; treatment concentration 10 μM) | Viability (final, day 10) (CHO cells [2]; treatment concentration 10 μM) [%] | DEX-induced overexpression of GILZ protein (GILZ) | effect on cell viability and cell growth rate (CHO cells [3]; RU-486 at 10 μM) | effect on CHO cell viability and metabolic parameters (CHO cells [3]; RU-486 concentrations not higher than 1 μM) | up-regulatory effect of DEX on glutathione reductase expression (glutathione reductase) |
| --- | --- | --- | --- | --- | --- | --- | --- | --- | --- | --- | --- | --- | --- | --- | --- | --- |
| N[C@@H](CCC(=O)N[C@@H](CS)C(=O)NCC(=O)O)C(=O)O [GSH, Reduced glutathione] | 15.3 | 27.3 | – | – | – | – | – | – | – | – | – | – | – | – | – | – |
| C[C@]12CCC(=O)C=C1CC[C@@H]1[C@@H]2[C@@H](O)C[C@@]2(C)[C@H]1CC[C@]2(O)C(=O)CO [HYC, hydrocortisone] | – | – | 60.1-75.5% | 7.86 ×10^6 cells/mL | 10.06 ×10^6 cells/mL | 60.1 | 8.15 ×10^6 cells/mL | 9.51 ×10^6 cells/mL | 65.1 | 7.80 ×10^6 cells/mL | 8.44 ×10^6 cells/mL | 75.5 | – | – | – | – |
| C[C@]12C=CC(=O)C=C1CC[C@@H]1[C@@H]2[C@@H](O)C[C@@]2(C)[C@H]1CC[C@]2(O)C(=O)CO [PRD, prednisolone] | – | – | 69.4-75.5% | 8.26 ×10^6 cells/mL | 8.99 ×10^6 cells/mL | 69.4 | 8.79 ×10^6 cells/mL | 9.25 ×10^6 cells/mL | 76.8 | 8.27 ×10^6 cells/mL | 8.05 ×10^6 cells/mL | 77.5 | – | – | – | – |
| CC#C[C@]1(O)CC[C@H]2[C@@H]3CCC4=CC(=O)CCC4=C3[C@@H](c3ccc(N(C)C)cc3)C[C@@]21C [RU-486, mifepristone] | – | – | – | – | – | – | – | – | – | – | – | – | significantly decreased | significant decrease | did not affect | attenuated |
